Series [1] has as its target T1, SARS-CoV-2 nsp3-mac1 (Severe acute respiratory syndrome coronavirus 2, UniProt P0DTD1). The series is described as follows: biochemical. Conditions: for hill_slope: TR-FRET dose response curve fit; for perc_max_measured: highest measured response; for perc_min_measured: lowest measured response.
The target of series [2] is T1, SARS-CoV-2 nsp3-mac1. Nature of the series: biochemical. The format is biochemical. Conditions: for inhibition at 50 µM / inhibition at 100 µM: read-out: perc_inhibition_mean; for perc_inhibition_mean: SARS-CoV-2 nsp3 macrodomain TR-FRET single point, concentration 50.0 uM.
Series [3] addresses T1, SARS-CoV-2 nsp3-mac1. Nature of the series: biochemical. Also on record: SARS-CoV-2 nsp3 macrodomain TR-FRET single point, per cent inhibition, n=2.
The nature of series [4]: LogD. Conditions: pH 7.4; In vitro LogD.
Series [5] concerns SARS-CoV-2. The series is described as follows: Antiviral effect in iPSC-derived pneumocyte system. The format is cell-based. Conditions: iPSC pneumocytes SARS-CoV-2 antiviral effect; for perc_max_measured: maximum measured response of dose series; for perc_min_measured: minimum measured response of dose series.
Series [6] is described as follows: in vitro. Conditions: human, hela-ace2 cells, 50.0.
The nature of series [7]: Hepatic microsomal stability, MLM. The format is in vitro ADME.
In series [8] the test system is SARS-CoV-2, isolate USA-WA1/2020. Nature of the series: microbe, parasite or virus in culture. It is filed as cell-based. Conditions: HeLa-ACE2 SARS-CoV-2 antiviral effect without P-gp inhibitor; for perc_max_measured: maximum measured response of dose series; for perc_min_measured: minimum measured response of dose series; for EC50: read-out: ec50; for EC90: read-out: ec90.

Series [9] has as its system iPSC pneumocytes. The series is described as follows: iPSC pneumocytes cytotoxicity. The format is cell-based. Conditions: protocol iPSC pneumocytes cytotoxicity; for perc_max_measured: highest measured response of the dose series; for perc_min_measured: lowest measured response of the dose series. The text has this: Supplement media-1.zip/Cytotoxicity.csv, table | column: cc10; cc50; perc_min_measured; perc_max_measured

Series [10] in a line: Hepatic microsomal stability, HLM. The format is in vitro ADME, human. Conditions: In vitro human liver microsomal stability; for perc_remaining_no_cofactor: no cofactor.
A short description of series [11]: Permeability Papp (AB) MDR1/MDCKII. Conditions: In vitro MDR1-MDCKII permeability; for papp_a_to_b_mean: A to B; for perc_recovery_a_to_b_mean: recovery A to B.
The test system of series [12] is HeLa-ACE2 cells. Conditions: for perc_max_measured: highest measured response of the dose series; for perc_min_measured: lowest measured response of the dose series.
Series [13] in a line: In vitro kinetic solubility. Conditions: In vitro kinetic solubility, ph 7.4.
Where [14] appears, read: HTRF IC50, Figure 4A, racemic mixture.
[15] abbreviates: IC50, nsp3-mac1 activity, Figures 1-3 and text.
Setting [16] is: TR-FRET dose response, supplement, read-out: ic50.
[17] abbreviates: In vitro mouse liver microsomal stability.
Setting [18] is: In vitro mouse liver microsomal stability; no cofactor.
[19] abbreviates: protocol HeLa-ACE2 cytotoxicity.

In brackets after ≈: the same amount, converted by molar mass. Several values for one entry are separate records, joined by “and”; a condition that tells them apart may be missing. Equal entries are not always repeated. Where two headings read alike, the source gives them in different places. A value given as a limit tells only on which side of the number the result lay.

On to `CC(C)C(Nc1ncnc2[nH]c(C(=O)NC3CCN(C)C3)cc12)c1ccc2c(c1)OCCO2` (stereo not drawn) [ASAP-0010747], for which the IC50 in series [1] (setting [14]) came out at 0.46 µM.

`CC(C)C(Nc1ncnc2n[nH]cc12)c1cnn(C)c1` (stereo not drawn) [ASAP-0000031] had an IC50 in series [1] (setting [15]) of 43 µM. The inhibition at 50 µM in [2] is 63.5%.

As for `O=C(OCc1cccc(Cl)n1)c1ncnc2[nH]ccc12` [ASAP-0000193], in [1], the hill_slope stood at 1.685. For the same compound, in [1] (TR-FRET dose response), the perc_max_measured is 38.614% and the perc_min_measured was -4.676%. Moreover, the IC50 in series [1] (setting [16]) is > 124 µM. This compound showed a perc_inhibition_mean in series [2] of 11.426%. Also, the inhibition at 50 µM in series [3] (read-out: perc_inhibition_mean, batch_name=ASAP-0000193-001) came out at 11.4%.

`c1nc(NC(c2ccc3c(c2)OCCO3)C2CCC2)c2cc[nH]c2n1` (stereo not drawn) [ASAP-0000866]: the IC50 in [1] (setting [14]) worked out at 5.8 µM.

As for `CC(C)C(Nc1ncnc2[nH]c(-c3cnn(C)c3)cc12)c1ccc2c(c1)OCCO2` (stereo not drawn) [ASAP-0008596], in series [1] (setting [15]), it took 0.56 µM to reach half-maximal inhibition (IC50).

In series [1] (setting [15]), `Cc1[nH]c2ncnc(NC(=O)C3CC=CC3)c2c1C` [ASAP-0000025] displayed an IC50 of 42 µM. For the same compound, the inhibition at 50 µM in series [2] turned out to be 73.1%.

As to `O=C(NCc1cc2n(n1)CCCC2)c1cc2cncnc2[nH]1` [ASAP-0000134], in [1] (TR-FRET dose response), the perc_max_measured is given as 2.258% and the perc_min_measured is recorded as -11.392%. The IC50 in [1] (setting [16]) was > 124 µM. This compound also came in with a perc_inhibition_mean in [2] of 4.173%. Further, in series [3] (read-out: perc_inhibition_mean, batch_name=ASAP-0000134-001), the inhibition at 50 µM is 4.17%.

With `Cn1ncc(-c2cc3c(N[C@@H](c4ccc5c(c4)OCCO5)C(C)(C)C)ncnc3[nH]2)c1C#N` (racemic) [ASAP-0008484], the logd in series [4] was 2.9. In series [5], the EC50 was 7.67 µM, it took 13.4 µM to reach the 90% level (EC90), the perc_max_measured is on record as 131.986% and the perc_min_measured was found to be 2.165%. In addition, the CC50 at 24 h in series [6] is > 20 µM. In [7] (setting [17]), this compound returned a clint of 199.0 µL/min/mg, a perc_remaining of 4.0% and a t_half of 8.4 min. Moreover, the perc_remaining_no_cofactor in series [7] (setting [18]) is 100.0%. Also, in series [8], the perc_max_measured is 91.316% and 93.387%; the perc_min_measured was 1.9% and 1.413%; the EC50 was 1.05 µM and 1.12 µM; the EC90 was 2.12 µM and 3.3 µM. Further, in series [9], half-maximal cytotoxicity (CC50) was put at 48.6 µM, the cc10 was 41.767 µM, the perc_max_measured is given as 107.062% and the perc_min_measured worked out at 63.039%. Moreover, in series [10], the clint is 85.0 µL/min/mg, the perc_remaining is listed as 22.0%, the t_half was 19.6 min and the perc_remaining_no_cofactor came out at 109.0%. In addition, in [11] (mean), the papp_a_to_b_mean came to 2.79 ×10⁻⁶ cm/s and the perc_recovery_a_to_b_mean is listed as 39.4%. In [12] (setting [19]), the CC50 is > 20 µM; the cc10 was > 20.0 µM; the perc_max_measured is 117.871% and 98.808%; the perc_min_measured was 61.501% and 55.999%. Moreover, the solubility_mean in series [13] was 25 µM (≈ 11.1 µg/mL).

As for `Cc1[nH]c2ncnc(NC(=O)c3ccncc3Cl)c2c1C` [ASAP-0000266], in [1] (setting [15]), the IC50 was 25 µM. Besides, in series [2], the inhibition at 50 µM is 69.6% and the inhibition at 100 µM worked out at 85.6%.

Compound `O=C(c1cccc(Br)c1)N1CCC(c2ccn3ncc(C(=O)N4CCCCC4)c3c2)CC1` [ASAP-0000191] displayed a hill_slope in [1] of 0.907. Besides, in [1] (TR-FRET dose response), the perc_max_measured turned out to be 41.392% and the perc_min_measured is recorded as -0.981%. Besides, the IC50 in series [1] (setting [16]) was > 124 µM. For the same compound, the perc_inhibition_mean in series [2] stood at 32.136%. Further, the inhibition at 50 µM in [3] (read-out: perc_inhibition_mean, batch_name=ASAP-0000191-001) was 32.1%.

As for `CC(C)[C@@H](Nc1ncnc2[nH]c(-c3cnn(C)n3)cc12)c1ccc2c(c1)OCCO2` [ASAP-0008469], in [5], the midpoint of the response, the EC50, lay at 13.3 µM; the 90% effect level (EC90) was put at 25.3 µM; the perc_max_measured is 157.709%; the perc_min_measured amounted to 4.934%. Besides, the CC50 at 24 h in series [6] was > 20 µM. In series [8], the perc_max_measured is 101.658% and 92.76%; the perc_min_measured was 24.481% and 27.109%; the EC50 was 5.33 µM and 6.65 µM; the EC90 is > 20 µM. Moreover, in series [9], the perc_max_measured was 89.766% and the perc_min_measured was 75.657%. Further, in series [12], the CC50 is > 20 µM and the cc10 is > 20.0 µM. In series [12] (setting [19]), the perc_max_measured is 104.412% and 106.04%; the perc_min_measured was 76.407% and 89.613%.

Regarding `CC(C)(C)C(Nc1ncnc2[nH]ccc12)c1ccc2c(c1)OCCO2` (stereo not drawn) [ASAP-0008277], the concentration for half-maximal inhibition (IC50) in series [1] (setting [14]) was 1.1 µM.

For the compound `FC(F)(F)C(Nc1ncnc2[nH]ccc12)c1ccc2c(c1)OCCO2` (stereo not drawn) [ASAP-0000870], in [1] (Figure 4A, racemic mixture, read-out: HTRF IC50), the IC50 is 19 µM.

`O=C(O)c1cscc1C(=O)N1CCC(c2ccn3ncc(C(=O)N4CCCCC4)c3c2)CC1` [ASAP-0000259] displayed an IC50 in [1] (setting [15]) of 44 µM. Besides, in series [2], the inhibition at 50 µM was 47.7% and the inhibition at 100 µM turned out to be 66.7%.

`CC(C)[C@@H](Nc1ncnc2[nH]c(-c3cnn(CC(=O)N(C)C)c3)cc12)c1ccc2c(c1)OCCO2` [ASAP-0008485] registered a logd in series [4] of 2.3. For the same compound, in series [6], the CC50 at 24 h is > 20 µM. Besides, in [7] (setting [17]), the clint amounted to 59.0 µL/min/mg, the perc_remaining was found to be 39.0% and the t_half stood at 28.1 min. For the same compound, in series [7] (setting [18]), the perc_remaining_no_cofactor is listed as 98.0%. In [8], the perc_max_measured is 120.313% and 102.904%; the perc_min_measured was 86.961% and 72.697%; the concentration for a half-maximal effect (EC50) is > 20 µM; the EC90 is > 20 µM. In addition, in series [10], the clint amounted to 142.0 µL/min/mg, the perc_remaining is 9.0%, the t_half came out at 11.8 min and the perc_remaining_no_cofactor was determined as 110.0%. Besides, in series [11] (mean), the papp_a_to_b_mean amounted to 1.15 ×10⁻⁶ cm/s and the perc_recovery_a_to_b_mean came out at 80.8%. For the same compound, in [12] (setting [19]), the CC50 was > 20 µM; the cc10 was > 20.0 µM; the perc_max_measured is 96.628% and 85.957%; the perc_min_measured was 73.752% and 75.897%. In series [13], this compound returned a solubility_mean of 210 µM (≈ 99.9 µg/mL).

For `O=C(O)C(Nc1ncnc2[nH]ccc12)c1ccc2c(c1)OCCO2` (stereo not drawn) [ASAP-0000789], in series [1] (setting [14]), the IC50 stood at 8.7 µM.

With `COc1ccc(C(Nc2ncnc3[nH]ccc23)C(C)C)cc1` (stereo not drawn) [ASAP-0000752], the IC50 in [1] (setting [14]) came to 7.2 µM.

Regarding `CC(C)[C@@H](Nc1ncnc2[nH]c(-c3ccc4nnn(C)c4c3)cc12)c1ccc2c(c1)S(=O)(=O)CCC2` [ASAP-0011201], the logd in [4] worked out at 3.4. The CC50 at 24 h in series [6] is > 20 µM. In series [7] (setting [17]), this compound showed a clint of 219.0 µL/min/mg, a perc_remaining of 3.0% and a t_half of 7.6 min. Moreover, the perc_remaining_no_cofactor in series [7] (In vitro mouse liver microsomal stability, no cofactor) turned out to be 93.0%. In series [8], the perc_max_measured is on record as 110.665%, the perc_min_measured is recorded as 33.895%, the EC50 was 3.64 µM and the EC90 was > 20 µM. Moreover, in [10], the clint came to 752.0 µL/min/mg, the perc_remaining was found to be 0.0%, the t_half was 2.2 min and the perc_remaining_no_cofactor was 93.0%. For the same compound, in [11] (no inhibitor), the papp_a_to_b_mean stood at 0.827 ×10⁻⁶ cm/s and the perc_recovery_a_to_b_mean was determined as 53.6%. Also, in [12] (HeLa-ACE2 cytotoxicity), the CC50 is > 20 µM, the cc10 was > 20.0 µM, the perc_max_measured is recorded as 106.149% and the perc_min_measured amounted to 70.638%. The solubility_mean in series [13] was determined as 6 µM (≈ 3.01 µg/mL).

(Values after doi:10.1101/2024.08.19.608619, “Discovery of potent SARS-CoV-2 nsp3 macrodomain inhibitors uncovers lack of translation to cellular antiviral response” (bioRxiv, 2024).)
